Assay results taken from US20060014801A1, “Prevention and treatment of cognitive impairment using (R)-(-)-5-methyl-1-nicotynoyl-2-pyrazoline (MNP) and analogs” (The Johns Hopkins University, priority 2002, published 2006).
Like-named read-outs stand apart in the source and are kept apart here.

Assay: Pharmacokinetics of MNP in the rat (plasma, LC/MS/MS)
Assay type: in vivo, male Sprague-Dawley rats
Details: for concentration at 5 min / concentration at 15 min / concentration at 30 min / concentration at 60 min / concentration at 120 min / concentration at 180 min / concentration at 240 min / concentration at 480 min / concentration at 720 min / concentration at 1440 min: mean ± s.e.m., 3 rats, read-out: MNP plasma levels
Experimental: Pharmacokinetic experiments were conducted. MNP was dissolved in saline solution (0.9% NaCl) and administered to male Sprague-Dawley rats (weighing 250-315 grams) with vascular catheters surgically placed in both jugular veins (Charles River, Wilmington, Mass.). The catheter on the left jugular vein was used for intravenous infusion of 5 mg/kg MNP (in the animals that received the i.v. dosing), while the catheter on the right jugular vein was used for blood sample collection. Oral doses of MNP (50 and 200 mg/kg) were administered by oral gavage. […] The samples were collected in heparin-coated microtainers, spun down in a microcentrifuge (14,000 rpm for 7 minutes) to separate out the blood plasma and frozen until analyzed. Plasma levels were quantitated by LC/MS/MS analysis (Applied Biosystems/MDS SCIEX API 3000).
The pharmacokinetic parameters Cmax, tmax, area-under-the-curve (AUC), clearance, and half-life (t1/2) were calculated for oral doses of MNP (50 and 200 mg/kg) and are described in Table II. These parameters are compared to the intravenous dose (5 mg/kg) to determine the oral bioavailability (Foral) of MNP in the rat. […] The roughly 30-minute terminal half-life calculated for the intravenous dose of MNP (5 mg/kg) was similar to previously reported data (Umemura et al., Stroke, 1996; 27:1624-1628).

[1] = male, Sprague-Dawley, plasma, intravenous, 5 mg/kg i.v.
[2] = male, Sprague-Dawley, plasma, iv, 5 mg/kg i.v., approximate value
[3] = male, Sprague-Dawley, plasma, oral, 50 mg/kg p.o.
[4] = male, Sprague-Dawley, plasma, oral, 200 mg/kg p.o.
[5] = male, Sprague-Dawley, plasma, po, 50 mg/kg p.o., approximate value
[6] = male, Sprague-Dawley, plasma, po, 200 mg/kg p.o., approximate value

For `C[C@@H]1CC=NN1C(=O)c1cccnc1` [MNP, (R)-(−)-5-methyl-1-nicotinoyl-2-pyrazoline], the “Time of secondary plasma peak” value (50 mg/kg oral dose) was “about 8 hours”, the “˜Clearance” value (50 mg/kg p.o., approximate value, Clearance = Dose/AUC) was ~4.8 mL/min and the “Plasma levels at 24 hours post-administration” value (200 mg/kg oral dose) was “significant plasma levels”. The “˜Clearance” value (200 mg/kg p.o., approximate value, Clearance = Dose/AUC) was ~7.8 mL/min, the “Oral bioavailability (in words)” value (based on AUC and Foral for both oral doses (50 and 200 mg/kg)) was “highly bioavailable” and the half-life (male, Sprague-Dawley, plasma, 5 mg/kg intravenous dose, read-out: Terminal half-life) was ~30 min. For the same compound, the concentration at 5 min [1] was 6550 ± 32 ng/mL, the concentration at 15 min [1] was 4530 ± 60 ng/mL and the concentration at 30 min [1] was 2880 ± 95 ng/mL. For the same compound, the concentration at 60 min [1] was 1300 ± 75 ng/mL, the concentration at 120 min [1] was 272 ± 9 ng/mL and the concentration at 180 min [1] was 51 ± 3 ng/mL. The concentration at 240 min [1] was 13 ± 1 ng/mL, the concentration at 480 min [1] was 2 ± 1 ng/mL and the concentration at 720 min [1] was 3 ± 2 ng/mL. It also gave a concentration at 1440 min [1] of 2 ± 0.5 ng/mL, an AUC [2] of ~4220 ng·h/mL and a Cmax [2] of ~6550 ng/mL. For the same compound, the Tmax [2] was ~5 min, the clearance (male, Sprague-Dawley, plasma, iv, 5 mg/kg i.v., approximate value, Clearance = Dose/AUC) was ~5.6 mL/min and the bioavailability (male, Sprague-Dawley, plasma, oral, 50 mg/kg p.o. vs 5 mg/kg i.v., effects of saturation and accumulation unknown, read-out: ˜Bioavailability (Foral; %)) was ~119%. The concentration at 5 min [3] was 16000 ± 1720 ng/mL, the concentration at 15 min [3] was 16000 ± 933 ng/mL and the concentration at 30 min [3] was 13600 ± 1120 ng/mL. The concentration at 60 min [3] was 9980 ± 976 ng/mL, the concentration at 120 min [3] was 6140 ± 1980 ng/mL and the concentration at 180 min [3] was 4180 ± 1640 ng/mL. The concentration at 240 min [3] was 2470 ± 792 ng/mL, the concentration at 480 min [3] was 2850 ± 755 ng/mL and the concentration at 720 min [3] was 536 ± 327 ng/mL. For the same compound, the concentration at 1440 min [3] was 9 ± 6 ng/mL, the bioavailability (male, Sprague-Dawley, plasma, oral, 200 mg/kg p.o. vs 5 mg/kg i.v., effects of saturation and accumulation unknown, read-out: ˜Bioavailability (Foral; %)) was ~80% and the concentration at 5 min [4] was 50300 ± 2640 ng/mL. The concentration at 15 min [4] was 41300 ± 3210 ng/mL, the concentration at 30 min [4] was 36500 ± 5570 ng/mL and the concentration at 60 min [4] was 21600 ± 3790 ng/mL. The concentration at 120 min [4] was 11000 ± 2190 ng/mL, the concentration at 180 min [4] was 5700 ± 1970 ng/mL and the concentration at 240 min [4] was 5840 ± 1440 ng/mL. For the same compound, the concentration at 480 min [4] was 2920 ± 343 ng/mL, the concentration at 720 min [4] was 1160 ± 360 ng/mL and the concentration at 1440 min [4] was 6250 ± 2830 ng/mL. The AUC [5] was ~50200 ng·h/mL, the Cmax [5] was ~16000 ng/mL and the Tmax [5] was ~10 min. The half-life (male, Sprague-Dawley, plasma, po, 50 mg/kg p.o., approximate value, read-out: ˜t1/2) was ~150 min, the AUC [6] was ~134000 ng·h/mL and the Cmax [6] was ~50300 ng/mL. For the same compound, the Tmax [6] was ~5 min, the half-life (male, Sprague-Dawley, plasma, po, 200 mg/kg p.o., approximate value, read-out: ˜t1/2) was ~90 min and the bioavailability (male, Sprague-Dawley, plasma, po, based on the results of Example 2, read-out: Oral bioavailability) was ≤ 80%. The Oral absorption (oral gavage, significant plasma levels at the 5-min time point) was “rapidly absorbed”.
